Data taken from patent publication US20150291598A1 (NOVARTIS AG, priority 2012, published 2015).

System: P. falciparum (NF54 or 3D7 strain)
Assay: Assay for P. falciparum proliferation in infected human blood cells (SYBR Green)
Assay type: cell-based, Plasmodium falciparum
Conditions: Plasmodium falciparum, Erythrocyte, 72 h, NF54 or 3D7 infected human erythrocytes, 72 hours; read-out: EC50 (nM), inhibitory efficacy in delaying P. falciparum proliferation in infected human blood cells
Procedure, shortened: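 NF54 or 3D7 parasites in O+ human erythrocytes at 2.5% hematocrit and 0.3% parasitemia final, exposed to compounds 72 h at 37 °C under 93% N2/4% CO2/3% O2.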

EC50 [nM]	SMILES
5720	CN(C(=O)c1cn2c(-c3ccc4[nH]nc(N)c4c3)cnc2cn1)c1ccc(C#N)cc1 [Compound 396, 3-(3-amino-1H-indazol-5-yl)-N-(4-cyanophenyl)-N-methylimidazo[1,2-a]pyrazine-6-carboxamide]
6550	NC(=O)C1CCCN(C(=O)c2cn3c(-c4ccc(C(F)(F)F)cc4)cnc3cn2)C1 (stereo not drawn) [Compound 397, 1-({3-[4-(trifluoromethyl)phenyl]imidazo[1,2-a]pyrazin-6-yl}carbonyl)piperidine-3-carboxamide]
6980	COc1ncc(N(C)C(=O)c2cn3c(-c4ccc(C(F)(F)F)cc4)cnc3cn2)cn1 [Compound 399, N-(2-methoxypyrimidin-5-yl)-N-methyl-3-[4-(trifluoromethyl)phenyl]imidazo[1,2-a]pyrazine-6-carboxamide]
> 10000	CN(C(=O)c1cn2c(-c3ccc(C#N)nc3)cnc2cn1)c1ccc(C#N)cc1 [Compound 401, N-(4-cyanophenyl)-3-(6-cyanopyridin-3-yl)-N-methylimidazo[1,2-a]pyrazine-6-carboxamide]
> 5980	CN(C(=O)c1cn2c(C(=O)Nc3ccc(C(F)(F)F)cc3)cnc2cn1)c1ccc(Cl)nc1 [Compound 403, 6-N-(6-chloropyridin-3-yl)-6-N-methyl-3-N-[4-(trifluoromethyl)phenyl]imidazo[1,2-a]pyrazine-3,6-dicarboxamide]
> 7570	NC(=O)c1nc[nH]c1NC(=O)c1cn2c(-c3ccc(C(F)(F)F)cc3)cnc2cn1 [Compound 404, 5-C-3-[4-(trifluoromethyl)phenyl]imidazo[1,2-a]pyrazine-6-1H-imidazole-4,5-dicarboxamide]
> 8970	CNc1ccc(-c2cnc3cnc(C(=O)N(C)c4ccc(Cl)nc4)cn23)cn1 [Compound 407, N-(6-chloropyridin-3-yl)-N-methyl-3-[6-(methylamino)pyridin-3-yl]imidazo[1,2-a]pyrazine-6-carboxamide]
> 10000	COC(=O)Nc1ccc(-c2cnc3cnc(C(=O)N(C)c4ccc(C)cn4)cn23)cn1 [Compound 415, methyl N-(5-{6-[methyl(5-methylpyridin-2-yl)carbamoyl]imidazo[1,2-a]pyrazin-3-yl}pyridin-2-yl)carbamate]
> 10000	CN(C)c1cccc(-c2cnc3cnc(C(=O)N(C)c4ccc(Cl)nc4)cn23)c1 [Compound 418, N-(6-chloropyridin-3-yl)-3-[3-(dimethylamino)phenyl]-N-methylimidazo[1,2-a]pyrazine-6-carboxamide]
> 8270	CN(C(=O)c1cn2c(-c3ccc(NS(C)(=O)=O)cc3)cnc2cn1)c1ccc(Cl)nc1 [Compound 419, N-(6-chloropyridin-3-yl)-3-(4-methanesulfonamidophenyl)-N-methylimidazo[1,2-a]pyrazine-6-carboxamide]
> 10000	CN(C(=O)c1cn2c(-c3ccc(F)cc3)cnc2cn1)c1ccc(Cl)nc1 [Compound 422, N-(6-chloropyridin-3-yl)-3-(4-fluorophenyl)-N-methylimidazo[1,2-a]pyrazine-6-carboxamide]
> 9660	CN(C(=O)c1cn2c(-c3ccc(C(F)(F)F)cc3)cnc2cn1)c1nc(-c2ccccc2)cs1 [Compound 423, N-methyl-N-(4-phenyl-1,3-thiazol-2-yl)-3-[4-(trifluoromethyl)phenyl]imidazo[1,2-a]pyrazine-6-carboxamide]
291	Cc1n[nH]c2ccc(-c3cnc4cnc(C(=O)N(C)c5ccc(C#N)cc5)cn34)cc12 [Compound 424]
1020	CC(=O)c1ccc(N(C)C(=O)c2cn3c(-c4ccc(C(F)(F)F)cc4)cnc3cn2)cc1 [Compound 425, N-(4-acetylphenyl)-N-methyl-3-[4-(trifluoromethyl)phenyl]imidazo[1,2-a]pyrazine-6-carboxamide]
276	CN(C(=O)c1cn2c(-c3ccc4[nH]ccc4c3)cnc2cn1)c1ccc(C#N)cc1 [Compound 428, N-(4-cyanophenyl)-3-(1H-indol-5-yl)-N-methylimidazo[1,2-a]pyrazine-6-carboxamide]
82	COc1ccc(-c2cnc3cnc(C(=O)N(C)c4ccc(F)c(F)c4)cn23)cc1 [Compound 431, N-(3,4-difluorophenyl)-3-(4-methoxyphenyl)-N-methylimidazo[1,2-a]pyrazine-6-carboxamide]

Continued, compound first:

SMILES	EC50 [nM]
COc1ccc(N(C)C(=O)c2cn3c(-c4ccc(C(F)(F)F)cc4)cnc3cn2)nn1 [Compound 395, N-(6-methoxypyridazin-3-yl)-N-methyl-3-[4-(trifluoromethyl)phenyl]imidazo[1,2-a]pyrazine-6-carboxamide]	5020
CNc1ccc(-c2cnc3cnc(C(=O)N(C)c4ccc(Cl)nc4)cn23)cc1 [Compound 398, N-(6-chloropyridin-3-yl)-N-methyl-3-[4-(methylamino)phenyl]imidazo[1,2-a]pyrazine-6-carboxamide]	6840
CN(C(=O)c1cn2c(-c3ccc(NCCN4CCOCC4)nc3)cnc2cn1)c1ccc(C#N)cc1 [Compound 400, -(4-cyanophenyl)-N-methyl-3-(6-{[2-(morpholin-4-yl)ethyl]amino}pyridin-3-yl)imidazo[1,2-a]pyrazine-6-carboxamide]	7850
CN(C(=O)c1cn2c(-c3ccc(OC(C)(C)CN)cc3)cnc2cn1)c1ccc(C#N)cc1 [Compound 402, 3-{4-[(1-amino-2-methylpropan-2-yl)oxy]phenyl}-N-(4-cyanophenyl)-N-methylimidazo[1,2-a]pyrazine-6-carboxamide]	3610
CC(c1ccc(Cl)cc1)N(C)C(=O)c1cn2c(-c3ccc(C(F)(F)F)cc3)cnc2cn1 (stereo not drawn) [Compound 405, N-[1-(4-chlorophenyl)ethyl]-N-methyl-3-[4-(trifluoromethyl)phenyl]imidazo[1,2-a]pyrazine-6-carboxamide]	> 8820
O=C(Nc1ccc(S(=O)(=O)Nc2nccs2)cc1)c1cn2c(-c3ccc(C(F)(F)F)cc3)cnc2cn1 [Compound 406, N-{4-[(1,3-thiazol-2-yl)sulfamoyl]phenyl}-3-[4-(trifluoromethyl)phenyl]imidazo[1,2-a]pyrazine-6-carboxamide]	> 8860
CN(C(=O)c1cn2c(-c3ccc(NC(=O)C(C)(C)N)cc3)cnc2cn1)c1ccc(C#N)cc1 [Compound 408, 3-[4-(2-amino-2-methylpropanamido)phenyl]-N-(4-cyanophenyl)-N-methylimidazo[1,2-a]pyrazine-6-carboxamide]	> 9300
Cc1ccc(N(C)C(=O)c2cn3c(-c4ccc(OCCN)cc4)cnc3cn2)nc1 [Compound 409, 3-[4-(2-aminoethoxyl)phenyl]-N-methyl-N-(5-methylpyridin-2-yl)imidazo[1,2-a]pyrazine-6-carboxamide]	> 9340
CN(C(=O)c1cn2c(-c3ccc(-c4nnco4)cc3)cnc2cn1)c1ccc(Cl)nc1 [Compound 410, N-(6-chloropyridin-3-yl)-N-methyl-3-[4-(1,3,4-oxadiazol-2-yl)phenyl]imidazo[1,2-a]pyrazine-6-carboxamide]	> 10000
Cc1nc(C(=O)N2CCCc3cc(F)ccc32)cn2c(-c3ccc(C(F)(F)F)cc3)cnc12 [Compound 411, 6-fluoro-1-({8-methyl-3-[4-(trifluoromethyl)phenyl]imidazo[1,2-a]pyrazin-6-yl}carbonyl)-1,2,3,4-tetrahydroquinoline]	> 7570
CN(C(=O)c1cn2c(-c3ccc(C(F)(F)F)cc3)cnc2cn1)c1ccc(C2CCCC2)cn1 [Compound 412, N-(5-cyclopentylpyridin-2-yl)-N-methyl-3-[4-(trifluoromethyl)phenyl]imidazo[1,2-a]pyrazine-6-carboxamide]	7880
CN(C(=O)c1cn2c(-c3ccc(C(F)(F)F)nc3)cnc2cn1)c1ccc(Cl)nc1 [Compound 413, N-(6-chloropyridin-3-yl)-N-methyl-3-[6-(trifluoromethyl)pyridin-3-yl]imidazo[1,2-a]pyrazine-6-carboxamide]	7400
CC(C)(NC(=O)c1cn2c(-c3ccc(C(F)(F)F)cc3)cnc2cn1)c1ccc(F)cc1 [Compound 414, N-[2-(4-fluorophenyl)propan-2-yl]-3-[4-(trifluoromethyl)phenyl]imidazo[1,2-a]pyrazine-6-carboxamide]	> 7910
CN(C(=O)c1cn2c(-c3ccc(C(F)(F)F)cc3)cnc2cn1)c1cccc2nncn12 [Compound 416, N-methyl-N-{[1,2,4]triazolo[4,3-a]pyridin-5-yl}-3-[4-(trifluoromethyl)phenyl]imidazo[1,2-a]pyrazine-6-carboxamide]	> 10000
CN(C(=O)c1ccc(C(C)(C)C)cc1)c1cn2c(-c3ccc(C(F)(F)F)cc3)cnc2cn1 [Compound 417, 4-tert-butyl-N-methyl-N-{3-[4-(trifluoromethyl)phenyl]imidazo[1,2-a]pyrazin-6-yl}benzamide]	> 10000
Cc1ncccc1N(C)C(=O)c1cn2c(-c3ccc(C(F)(F)F)cc3)cnc2cn1 [Compound 420, N-methyl-N-(2-methylpyridin-3-yl)-3-[4-(trifluoromethyl)phenyl]imidazo[1,2-a]pyrazine-6-carboxamide]	> 10000
O=C1CCCCN1Cc1cn2c(-c3ccc(C(F)(F)F)cc3)cnc2cn1 [Compound 426, 1-({3-[4-(trifluoromethyl)phenyl]imidazo[1,2-a]pyrazin-6-yl}methyl)piperidin-2-one]	1950
CN(C)C(=O)c1ccc(-c2cnc3cnc(C(=O)N(C)c4ccc(C#N)cc4)cn23)cc1 [Compound 427, N-(4-cyanophenyl)-3-[4-(dimethylcarbamoyl)phenyl]-N-methylimidazo[1,2-a]pyrazine-6-carboxamide]	> 9800
CN(C(=O)c1cn2c(-c3ccc(OC(F)F)cc3)cnc2cn1)c1ccc(Cl)nc1 [Compound 429, N-(6-chloropyridin-3-yl)-3-[4-(difluoromethoxy)phenyl]-N-methylimidazo[1,2-a]pyrazine-6-carboxamide]	313
COc1cc(F)ccc1N(C)C(=O)c1cn2c(-c3ccc(C(F)(F)F)cc3)cnc2cn1 [Compound 430, N-(4-fluoro-2-methoxyphenyl)-N-methyl-3-[4(trifluoromethyl)phenyl]imidazo[1,2-a]pyrazine]	17
